Data reported in patent US5834284A, “N-acetylglucosaminyl transferase gene coding therefor and process for production thereof” (Suntory Limited, priority 1992, dated 1998).

Target: T1, GnT-V (β1,6-N-acetylglucosaminyl transferase) (Homo sapiens, UniProt Q09328)
T1 construct: 73/60 kDa
T1 sequence (Q09328 31-741): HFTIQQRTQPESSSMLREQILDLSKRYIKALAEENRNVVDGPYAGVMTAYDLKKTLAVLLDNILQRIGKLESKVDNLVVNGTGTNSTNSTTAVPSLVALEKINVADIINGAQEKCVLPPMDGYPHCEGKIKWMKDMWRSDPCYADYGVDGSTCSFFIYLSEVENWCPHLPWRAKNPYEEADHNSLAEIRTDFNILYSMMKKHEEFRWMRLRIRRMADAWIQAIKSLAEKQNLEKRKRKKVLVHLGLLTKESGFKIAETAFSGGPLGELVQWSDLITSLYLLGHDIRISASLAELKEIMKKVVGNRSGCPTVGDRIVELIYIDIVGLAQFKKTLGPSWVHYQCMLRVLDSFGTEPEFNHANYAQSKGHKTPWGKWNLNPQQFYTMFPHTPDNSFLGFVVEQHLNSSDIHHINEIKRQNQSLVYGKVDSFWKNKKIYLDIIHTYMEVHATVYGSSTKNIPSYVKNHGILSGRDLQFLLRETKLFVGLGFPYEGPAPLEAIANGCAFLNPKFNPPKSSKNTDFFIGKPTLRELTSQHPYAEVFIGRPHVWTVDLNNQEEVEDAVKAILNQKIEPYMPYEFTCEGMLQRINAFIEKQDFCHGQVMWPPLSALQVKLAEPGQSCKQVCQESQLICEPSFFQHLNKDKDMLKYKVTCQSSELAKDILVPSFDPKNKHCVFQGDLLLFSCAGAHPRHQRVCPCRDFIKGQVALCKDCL
Assay: GnT-V enzyme activity assay with fluorescence-labeled sugar acceptors, product separated by HPLC
Format: biochemical
Settings: for Relative reaction rate: acceptor 70 μM, purified GnT-V 0.1 mg protein/ml, GnGn-bi-PA = 100; for reactivity relative to GnGn-bi-PA acceptor taken as 100%: substrate specificity
Excerpt: An enzyme activity can be easily assayed by labeling an acceptor with a radioisotope or with fluorescent substance, adding the enzyme and separating the reaction product by high performance liquid chromatography (HPLC). More specifically, the method reported by Tanigichi et al. (Taniguchi, N., Nishikawa, A., Fujii, S., and Gu. J., Methods Enzymol. 179, 397-408 (1989); Nishikawa, H., Gu, J., Fujii, S., and Tanigichi, N., Biochem. Biophys. Acta, 1035, 313-318 (1990)) may be followed.
Namely, the enzyme activity of GnT-V can be assayed using GnGn-2-aminopyridine (GnGn-bi-PA) as an acceptor, and UDP-GluNAc (Sigma) as a donor. Activity is shown by an amount of transferred N-acetylglucosamine/hour/mg protein. Note, an amount of protein can be measured according to a reported method (Redinbaugh, M. G., and Turley, R. B., Anal. Biochem. 153, 267-271 (1986)) using a BCA kit (Pierce Chemical Company, Rockford, Ill.) and using bovine serum albumin as a standard.
Substrate specificity was determined using the following compound as sugar acceptors according to the above-mentioned enzyme activity measuring method. [drawing 1]
GnGnF--, GnGF--, GGnF--, Gn(Gn)GnF--, Gn(Gn)Gn--, GG--, GnGn--, MM-- and GnM-- were isolated from the bovine IgG treated with anhydrous hydrazine and then labeled with a fluorescence label according to Hase et al. method (Hase, S., Ibuki, T., and Ikehara, T., J. Biochem. 95, 197-203 (1984). The purified GnT-V was diluted with PBS buffer to a final concentration of 0.1 mg protein/ml, and then reacted with each fluorescence-labeled sugar acceptor. A result is shown in Table 2.

| Relative reaction rate | SMILES | also measured |
| --- | --- | --- |
| 0 | CC(=O)N[C@H]1[C@H](O[C@@H]([C@H](O)[C@H](CNc2ccccn2)NC(C)=O)[C@H](O)CO)O[C@H](CO)[C@@H](O[C@@H]2O[C@H](CO[C@H]3O[C@H](CO)[C@@H](O)[C@H](O)[C@@H]3O)[C@@H](O)[C@H](O[C@H]3O[C@H](CO)[C@@H](O)[C@H](O)[C@@H]3O)[C@@H]2O)[C@@H]1O [MM-PA, Manα1-3Manα1-6)Manβ1-4GlcNAcβ1-4GlcNAc-2-aminopyridine] |  |
|  | [Mn+2] [Mn^2+] | requirement for expression of GnT-V activity: not necessary |
| 66 | CC(=O)N[C@H]1[C@H](O[C@@H]([C@H](O)[C@H](CNc2ccccn2)NC(C)=O)[C@H](O)CO)O[C@H](CO)[C@@H](O[C@@H]2O[C@H](CO[C@H]3O[C@H](CO)[C@@H](O)[C@H](O)[C@@H]3O[C@@H]3O[C@H](CO)[C@@H](O)[C@H](O)[C@H]3NC(C)=O)[C@@H](O)[C@H](O[C@H]3O[C@H](CO)[C@@H](O)[C@H](O)[C@@H]3O)[C@@H]2O)[C@@H]1O [GnM-PA, Manα1-3(GlcNAcβ1-2Manα1-6)Manβ1-4GlcNAcβ1-4GlcNAc-2-aminopyridine] | reaction of the enzyme with acceptor (qualitative): reacts; reactivity relative to GnGn-bi-PA acceptor taken as 100%: about 66% |
| 78 | CC(=O)N[C@H]1[C@H](O[C@@H]([C@H](O)[C@H](CNc2ccccn2)NC(C)=O)[C@H](O)CO[C@@H]2O[C@@H](C)[C@@H](O)[C@@H](O)[C@@H]2O)O[C@H](CO)[C@@H](O[C@@H]2O[C@H](CO[C@H]3O[C@H](CO)[C@@H](O)[C@H](O)[C@@H]3O[C@@H]3O[C@H](CO)[C@@H](O)[C@H](O)[C@H]3NC(C)=O)[C@@H](O)[C@H](O[C@H]3O[C@H](CO)[C@@H](O)[C@H](O)[C@@H]3O[C@@H]3O[C@H](CO)[C@@H](O)[C@H](O)[C@H]3NC(C)=O)[C@@H]2O)[C@@H]1O [GnGnF-bi-PA, GlcNAcβ1-2Manα1-3-(GlcNAcβ1-2Manα1-6)Manβ1-4GlcNAcβ1-4GlcNAc(Fucα1-6)-2-aminopyridine] | reaction of the enzyme with acceptor (qualitative): reacts; reactivity relative to GnGn-bi-PA acceptor taken as 100%: about 78% |
|  | O=C(O)CN(CCN(CC(=O)O)CC(=O)O)CC(=O)O [EDTA] | inhibition of GnT-V activity (in the presence of 20 mM EDTA): not inhibited |
| 0 | CC(=O)N[C@H]1[C@H](O[C@@H]([C@H](O)[C@H](CNc2ccccn2)NC(C)=O)[C@H](O)CO)O[C@H](CO)[C@@H](O[C@@H]2O[C@H](CO[C@H]3O[C@H](CO)[C@@H](O)[C@H](O)[C@@H]3O[C@@H]3O[C@H](CO)[C@@H](O)[C@H](O)[C@H]3NC(C)=O)[C@@H](O[C@@H]3O[C@H](CO)[C@@H](O)[C@H](O)[C@H]3NC(C)=O)[C@H](O[C@H]3O[C@H](CO)[C@@H](O)[C@H](O)[C@@H]3O[C@@H]3O[C@H](CO)[C@@H](O)[C@H](O)[C@H]3NC(C)=O)[C@@H]2O)[C@@H]1O [Gn(Gn)Gn-bi-PA, GlcNAcβ1-2Manα1-2Manα1-6)-Manβ1-4GlcNAcβ1-4GlcNAc-2-aminopyridine] |  |
| 0 | CC(=O)N[C@H]1[C@H](O[C@H]2[C@@H](O)[C@@H](CO)O[C@@H](O[C@@H]([C@H](O)[C@@H](O)CNc3ccccn3)[C@H](O)CO)[C@@H]2O)O[C@H](CO)[C@@H](O)[C@@H]1O [Lacto-N-triaose-PA, GlcNAcβ1-3Galβ1-4Glc-2-aminopyridine] |  |
| 0.2 | CC(=O)N[C@H]1[C@H](O[C@@H]([C@H](O)[C@H](CNc2ccccn2)NC(C)=O)[C@H](O)CO[C@@H]2O[C@@H](C)[C@@H](O)[C@@H](O)[C@@H]2O)O[C@H](CO)[C@@H](O[C@@H]2O[C@H](CO[C@H]3O[C@H](CO)[C@@H](O)[C@H](O)[C@@H]3O[C@@H]3O[C@H](CO)[C@@H](O[C@@H]4O[C@H](CO)[C@H](O)[C@H](O)[C@H]4O)[C@H](O)[C@H]3NC(C)=O)[C@@H](O)[C@H](O[C@H]3O[C@H](CO)[C@@H](O)[C@H](O)[C@@H]3O[C@@H]3O[C@H](CO)[C@@H](O)[C@H](O)[C@H]3NC(C)=O)[C@@H]2O)[C@@H]1O [GGnF-bi-PA, GlcNAcβ1-2Manα1-3(Galβ1-4GlcNAc2Manα1-6)Manβ1-4GlcNAcβ1-4GlcNAc(Fucα1-6)-2-aminopyridine] |  |
| 0 | CC(=O)N[C@H]1[C@H](O[C@H]2[C@@H](O)[C@@H](CO)O[C@@H](O[C@@H]([C@H](O)[C@@H](O)CNc3ccccn3)[C@H](O)CO)[C@@H]2O)O[C@H](CO)[C@@H](O[C@@H]2O[C@H](CO)[C@H](O)[C@H](O)[C@H]2O)[C@@H]1O [Lacto-N-neotetraose-PA, Galβ1-4GlcNAcβ1-3Galβ1-4Glc-2-aminopyridine] |  |
| 0 | CC(=O)N[C@H]1[C@H](O[C@@H]([C@H](O)[C@H](CNc2ccccn2)NC(C)=O)[C@H](O)CO)O[C@H](CO)[C@@H](O[C@@H]2O[C@H](CO[C@H]3O[C@H](CO)[C@@H](O)[C@H](O)[C@@H]3O[C@@H]3O[C@H](CO)[C@@H](O[C@@H]4O[C@H](CO)[C@H](O)[C@H](O)[C@H]4O)[C@H](O)[C@H]3NC(C)=O)[C@@H](O)[C@H](O[C@H]3O[C@H](CO)[C@@H](O)[C@H](O)[C@@H]3O[C@@H]3O[C@H](CO)[C@@H](O[C@@H]4O[C@H](CO)[C@H](O)[C@H](O)[C@H]4O)[C@H](O)[C@H]3NC(C)=O)[C@@H]2O)[C@@H]1O [GG-bi-PA, Galβ1-4GlcNAcβ1-2Manα1-3(Galβ1-4GlcNAcβ1-2Manα1-6)Manβ1-4GlcNAcβ1-4GlcNAc-2-aminopyridine] |  |
| 125 | CC(=O)N[C@H]1[C@H](O[C@@H]([C@H](O)[C@H](CNc2ccccn2)NC(C)=O)[C@H](O)CO)O[C@H](CO)[C@@H](O[C@@H]2O[C@H](CO[C@H]3O[C@H](CO)[C@@H](O)[C@H](O)[C@@H]3O[C@@H]3O[C@H](CO)[C@@H](O)[C@H](O)[C@H]3NC(C)=O)[C@@H](O)[C@H](O[C@H]3O[C@H](CO)[C@@H](O[C@@H]4O[C@H](CO)[C@@H](O)[C@H](O)[C@H]4NC(C)=O)[C@H](O)[C@@H]3O[C@@H]3O[C@H](CO)[C@@H](O)[C@H](O)[C@H]3NC(C)=O)[C@@H]2O)[C@@H]1O [GnGnGn-tri-PA, GlcNAcβ1-2(GlcNAcβ1-4)Manα1-3(GlcNAcβ1-2Manα1-6)-Manβ1-4GlcNAcβ1-4GlcNAc-2-aminopyridine] | reaction of the enzyme with acceptor (qualitative): reacts; reactivity relative to GnGn-bi-PA acceptor taken as 100%: about 125% |
| 0 | CC(=O)N[C@H]1[C@H](O[C@@H]([C@H](O)[C@H](CNc2ccccn2)NC(C)=O)[C@H](O)CO[C@@H]2O[C@@H](C)[C@@H](O)[C@@H](O)[C@@H]2O)O[C@H](CO)[C@@H](O[C@@H]2O[C@H](CO[C@H]3O[C@H](CO)[C@@H](O)[C@H](O)[C@@H]3O[C@@H]3O[C@H](CO)[C@@H](O)[C@H](O)[C@H]3NC(C)=O)[C@@H](O[C@@H]3O[C@H](CO)[C@@H](O)[C@H](O)[C@H]3NC(C)=O)[C@H](O[C@H]3O[C@H](CO)[C@@H](O)[C@H](O)[C@@H]3O[C@@H]3O[C@H](CO)[C@@H](O)[C@H](O)[C@H]3NC(C)=O)[C@@H]2O)[C@@H]1O [Gn(Gn)GnF-bi-PA, GlcNAcβ1-2Manα1-2Manα1-6)-Manβ1-4GlcNAcβ1-4GlcNAc(Fucα1-6)2-aminopyridine] |  |
| 3 | CC(=O)N[C@H]1[C@H](O[C@@H]([C@H](O)[C@H](CNc2ccccn2)NC(C)=O)[C@H](O)CO[C@@H]2O[C@@H](C)[C@@H](O)[C@@H](O)[C@@H]2O)O[C@H](CO)[C@@H](O[C@@H]2O[C@H](CO[C@H]3O[C@H](CO)[C@@H](O)[C@H](O)[C@@H]3O[C@@H]3O[C@H](CO)[C@@H](O)[C@H](O)[C@H]3NC(C)=O)[C@@H](O)[C@H](O[C@H]3O[C@H](CO)[C@@H](O)[C@H](O)[C@@H]3O[C@@H]3O[C@H](CO)[C@@H](O[C@@H]4O[C@H](CO)[C@H](O)[C@H](O)[C@H]4O)[C@H](O)[C@H]3NC(C)=O)[C@@H]2O)[C@@H]1O [GnGF-bi-PA, Galβ1-4GlcNAcβ1-2Manα1-3(GlcNAcβ1-2Manα1-6)Manβ1-4GlcNAcβ1-4GlcNAc(Fucα1-6)-2-aminopyridine] |  |
